The values below come from patent US11266146B2, “Microbiocidal quinoline (thio)carboxamide derivatives” (SYNGENTA PARTICIPATIONS AG, priority 2017, dated 2022).

The subject of data set [1] is Fusarium culmorum. Briefly: whole plant or invertebrate. The conditions noted are these: in Triticum aestivum, 144 h, read-out: control of Fusarium culmorum. It is filed as in vivo.
In data set [2] the test system is Fusarium culmorum. Briefly: microbe, parasite or virus in culture. It counts as cell-based. The note with it: read-out: control of Fusarium culmorum.
The subject of data set [3] is Magnaporthe grisea (Pyricularia oryzae). Kind of data set: microbe, parasite or virus in culture. It counts as cell-based. The conditions noted are these: read-out: control of Magnaporthe grisea.
The test system of data set [4] is Glomerella lagenarium (Colletotrichum lagenarium). Briefly: Glomerella lagenarium (Colletotrichum lagenarium) / liquid culture (Anthracnose). The note with it: Colletotrichum orbiculare, growth inhibition photometrically 3-4 days after application, vs untreated control. It counts as cell-based.
For data set [5], the system named is Botryotinia fuckeliana (Botrytis cinerea). Briefly: Botryotinia fuckeliana (Botrytis cinerea) / liquid culture (Gray mould). The conditions noted are these: growth inhibition photometrically 3-4 days after application, vs untreated control. It counts as cell-based.
Data set [6] has as its system Monographella nivalis (Microdochium nivale). Kind of data set: Monographella nivalis (Microdochium nivale) / liquid culture (foot rot cereals). The conditions noted are these: growth inhibition photometrically 4-5 days after application, vs untreated control. It counts as cell-based.

SMILES strings stand for the structures.

`Cc1cc(C(F)(F)F)n(CC(C)(CC(C)C)NC(=O)c2cnc3c(F)cccc3c2)n1` (stereo not shown) [E15]: the pest or weed control at 200 ppm with Fusarium culmorum [1] was not below 80%. Besides, the inhibition of growth at 20 ppm (in the data set with Fusarium culmorum [2]; in data set [3]; in data set [4]) was not below 80% throughout.
What is called melting point is the temperature, or range, at which the solid turns liquid. For `Cc1ncc(CC(C)(CC(C)C)NC(=O)c2cnc3c(F)cccc3c2)s1` (stereo not shown) [E8], the melting point lay in the range of 146 to 150 °C. Also, in the data set with Fusarium culmorum [2], the inhibition of growth at 20 ppm was not below 80%. The compound further had an inhibition of growth at 20 ppm in data set [5] not below 80%. Moreover, in data set [3], the inhibition of growth at 20 ppm was not below 80%. In data set [4], this compound had an inhibition of growth at 20 ppm not below 80%.
On to `CC(Cc1ccnc(F)c1)(CC(F)(F)F)NC(=O)c1cnc2c(F)cccc2c1` (stereo not shown) [E30], for which the melting point fell in the range of 136 to 142 °C. The pest or weed control at 200 ppm in the data set with Fusarium culmorum [1] is not below 80%. The inhibition of growth at 20 ppm in the data set with Fusarium culmorum [2] is not below 80%. The compound further displayed an inhibition of growth at 20 ppm in data set [5] not below 80%. The inhibition of growth at 20 ppm in data set [3] was not below 80%.
In the case of `CC(Cc1cccc(F)n1)(CC(F)(F)F)NC(=O)c1cnc2c(F)cccc2c1` (stereo not shown) [E34], the pest or weed control at 200 ppm with Fusarium culmorum [1] was not below 80%. The inhibition of growth at 20 ppm (in the data set with Fusarium culmorum [2]; in data set [5]; in data set [3]; in data set [4]) was not below 80% throughout.
In the case of `CC(C)CC(C)(CN1CCCC(F)(F)C1)NC(=O)c1cnc2c(F)cccc2c1` (stereo not shown) [E3], the pest or weed control at 200 ppm with Fusarium culmorum [1] is not below 80%. In addition, the inhibition of growth at 20 ppm (in the data set with Fusarium culmorum [2]; in data set [5]; in data set [3]; in data set [4]) was not below 80% in each case.
Consider `CON1CCC(CC(C)(CC(F)(F)F)NC(=O)c2cnc3ccccc3c2)CC1` (stereo not shown) [E26], for which the pest or weed control at 200 ppm in the data set on Fusarium culmorum [1] was not below 80%. Further, the inhibition of growth at 20 ppm (with Fusarium culmorum [2]; in data set [5]; in data set [3]; in data set [4]) was not below 80% throughout.
Regarding `CC(C)CC(C)(Cc1cccs1)NC(=O)c1cnc2c(F)cccc2c1` (stereo not shown) [E12], the pest or weed control at 200 ppm with Fusarium culmorum [1] is not below 80%. Further, the inhibition of growth at 20 ppm (in the data set on Fusarium culmorum [2]; in data set [5]; in data set [3]; in data set [4]) was not below 80% each time.
Consider `CON1CCC(CC(C)(CC(F)(F)F)NC(=O)c2cnc3c(F)cccc3c2)CC1` (stereo not shown) [E28], for which the melting point lay within 76 to 86 °C. For the same compound, in the data set with Fusarium culmorum [2], the inhibition of growth at 20 ppm is not below 80%. In addition, the inhibition of growth at 20 ppm in data set [5] is not below 80%. Further, the inhibition of growth at 20 ppm in data set [4] was not below 80%.
With `CC(C)CC(C)(Cc1cnc(Cl)s1)NC(=O)c1cnc2c(F)cccc2c1` (stereo not shown) [E9], the melting point lay within 171 to 173 °C. The pest or weed control at 200 ppm in the data set on Fusarium culmorum [1] was not below 80%. The inhibition of growth at 20 ppm in the data set on Fusarium culmorum [2] was not below 80%. The compound further had an inhibition of growth at 20 ppm in data set [5] not below 80%. Also, in data set [3], the inhibition of growth at 20 ppm is not below 80%.
Regarding `Cc1nn(CC(C)(CC(C)C)NC(=O)c2cnc3c(F)cccc3c2)c2ccccc12` (stereo not shown) [E18], the inhibition of growth at 20 ppm (with Fusarium culmorum [2]; in data set [5]; in data set [4]) was not below 80% in each case.
In the case of `CC(C)C[C@](C)(CN1CCCC(F)(F)C1)NC(=O)c1cnc2c(F)cccc2c1` (single isomer, unassigned) [F1], the inhibition of growth at 20 ppm (in the data set with Fusarium culmorum [2]; in data set [5]; in data set [3]; in data set [4]) was not below 80% in each case.
In the case of `CC(C)(C)CC(C)(Cc1ncco1)NC(=O)c1cnc2c(F)cccc2c1` (stereo not shown) [E11], the inhibition of growth at 20 ppm (in the data set on Fusarium culmorum [2]; in data set [5]; in data set [4]) was not below 80% throughout.
The compound `CC(CC1CCCOC1)(CC(F)(F)F)NC(=O)c1cnc2ccccc2c1` (stereo not shown) [E36] registered a melting point of 81 to 84 °C. For the same compound, the inhibition of growth at 20 ppm with Fusarium culmorum [2] is not below 80%. For the same compound, the inhibition of growth at 20 ppm in data set [5] was not below 80%. In data set [4], this compound displayed an inhibition of growth at 20 ppm not below 80%.
With `CC(C)CC(C)(CN1CCC(=C(F)F)CC1)NC(=O)c1cnc2c(F)cccc2c1` (stereo not shown) [E4], the inhibition of growth at 20 ppm (in the data set on Fusarium culmorum [2]; in data set [5]; in data set [3]; in data set [4]) was not below 80% throughout.
Turning to `CON1CCC(CC(C)(CC(F)(F)F)NC(=O)c2cnc3c(C)cccc3c2)CC1` (stereo not shown) [E27], the inhibition of growth at 20 ppm (in the data set on Fusarium culmorum [2]; in data set [5]; in data set [3]; in data set [4]) was not below 80% in each case.
In the case of `CC(C)CC(C)(CN1CCC(F)(F)CC1)NC(=O)c1cnc2c(F)cccc2c1` (stereo not shown) [E5], the inhibition of growth at 20 ppm (in the data set on Fusarium culmorum [2]; in data set [5]; in data set [3]; in data set [4]) was not below 80% each time.
Compound `CC(CC1CCOCC1)(CC(F)(F)F)NC(=O)c1cnc2c(F)cccc2c1` (stereo not shown) [E25] displayed a melting point of 150 to 151 °C. The inhibition of growth at 20 ppm in the data set on Fusarium culmorum [2] was not below 80%. In addition, the inhibition of growth at 20 ppm in data set [5] is not below 80%. Further, the inhibition of growth at 20 ppm in data set [4] was not below 80%.
For the compound `CC(CC1CCOCC1)(CC(F)(F)F)NC(=O)c1cnc2ccccc2c1` (stereo not shown) [E31], the inhibition of growth at 20 ppm in data set [5] is not below 80%.
Consider `Cc1cccc2cc(C(=O)NC(C)(CC3CCOCC3)CC(F)(F)F)cnc12` (stereo not shown) [E32], for which the inhibition of growth at 20 ppm (in the data set on Fusarium culmorum [2]; in data set [5]; in data set [3]; in data set [4]) was not below 80% each time.
`Cc1noc(CC(C)(CC(C)(C)C)NC(=O)c2cnc3c(F)cccc3c2)n1` (stereo not shown) [E2]: the inhibition of growth at 20 ppm (in the data set with Fusarium culmorum [2]; in data set [5]; in data set [3]; in data set [4]) was not below 80% each time.
For the compound `Cc1ccc(CC(C)(CC(C)C)NC(=O)c2cnc3c(F)cccc3c2)s1` (stereo not shown) [E13], the inhibition of growth at 20 ppm (in the data set on Fusarium culmorum [2]; in data set [5]; in data set [3]; in data set [4]) was not below 80% each time.
`Cc1cc(C(F)(F)F)nn1CC(C)(CC(C)C)NC(=O)c1cnc2c(F)cccc2c1` (stereo not shown) [E16] yielded a melting point of 140 to 144 °C. Besides, in data set [3], the inhibition of growth at 20 ppm is not below 80%.
`CC(Cc1cccc(F)n1)(CC(F)(F)F)NC(=O)c1cnc2ccccc2c1` (stereo not shown) [E35] returned a melting point of 109 to 111 °C. Besides, the pest or weed control at 200 ppm in the data set on Fusarium culmorum [1] is not below 80%. Moreover, in the data set on Fusarium culmorum [2], the inhibition of growth at 20 ppm was not below 80%. Besides, the inhibition of growth at 20 ppm in data set [5] is not below 80%. In data set [4], the inhibition of growth at 20 ppm is not below 80%.
`Cc1c2ccccc2nn1CC(C)(CC(C)C)NC(=O)c1cnc2c(F)cccc2c1` (stereo not shown) [E17]: the inhibition of growth at 20 ppm (in data set [6]; with Fusarium culmorum [2]; in data set [5]) was not below 80% in each case.
Take `CC(C)CC(C)(CN1CCSCC1)NC(=O)c1cnc2c(F)cccc2c1` (stereo not shown) [E7]: the inhibition of growth at 20 ppm (with Fusarium culmorum [2]; in data set [5]; in data set [3]) was not below 80% each time.
`CC(Cc1ccc(F)nc1)(CC(F)(F)F)NC(=O)c1cnc2c(F)cccc2c1` (stereo not shown) [E29] returned a melting point of 70 to 74 °C. In addition, the inhibition of growth at 20 ppm in the data set with Fusarium culmorum [2] was not below 80%. For the same compound, the inhibition of growth at 20 ppm in data set [5] was not below 80%. In data set [4], this compound had an inhibition of growth at 20 ppm not below 80%.
